Calls of active or inactive are those of the source. The rule behind the calls is not given here. Square brackets hold non-standard residues; d marks the D form. Peptide text beside a SMILES is read from it. Bta = N[C@@H](Cc1csc2ccccc12)C(=O)O
Legend:
[1] = Drug uptake in human K562 cells assessed as fluorescence intensity at 5 umol/L pretreated with endocytosis inhibitor, chloroquine for 0.5 hrs followed by incubation with compound for 2 hrs by FACS analysis; type: ADME, cell-based; details: k562, 2 h, 5 µM, dose 5 µmol/L
[2] = Interaction with IMA-PROTAC assessed as induction of formation of micelle cluster with uniform and distinct spherical morphology by transmission electron microscopy; type: physicochemical
[3] = Drug uptake in human K562 cells assessed as perinuclear distribution and colocalization with nucleus at 10 umol/L incubated for 2 hrs by confocal laser microscopy; type: ADME, cell-based; details: k562, 2 h, 10 µM, dose 10 µmol/L
K562 [4] = assay: Induction of apoptosis in human K562 cells assessed as necrotic cells at PROTAC to compound concentration ratio of 1:5 incubated for 48 hrs in presence of 3 umol/L IMA-PROTAC by AnnexinV-FITC/PI staining based flow cytometry (reference value: 0.1%); type: functional
[5] = Drug uptake in human K562 cells assessed as increase in fluorescence intensity at 5 umol/L measured for 60 to 240 mins by flow cytometry; type: ADME, cell-based; details: k562, 5 µM, TDE = time-dependent effect, time 60-240 min, dose 5 µmol/L
[6] = Increase in membrane permeation of IMA-PROTAC in human K562 cells assessed as increase in intracellular content of IMA-PROTAC incubated for 3 hrs by HPLC-MRM-MS analysis relative to control; type: functional
K562 [7] = assay: Potentiation of IMA-PROTAC-induced cytotoxicity against human K562 cells assessed as inhibition of cell growth at compound: IMA-PROTAC concentration ratio of 5:1 incubated for 48 hrs in presence of 3 umo/L IMA-PROTAC by MTT assay; type: functional, cell-based
[8] = Drug uptake in human K562 cells assessed as fluorescence intensity at 5 umol/L pretreated with endocytosis inhibitor, chlorpromazine for 0.5 hrs followed by incubation with compound for 2 hrs by FACS analysis; type: ADME, cell-based; details: k562, 2 h, 5 µM, dose 5 µmol/L
[9] = Drug uptake in human K562 cells assessed as increase in fluorescence intensity at 1 to 10 uM incubated for 2 hrs by flow cytometry; type: ADME, cell-based; details: k562, 2 h, dose 1-10 µM
[10] = Drug uptake in human K562 cells assessed as fluorescence intensity at 5 umol/L pretreated with endocytosis inhibitor, methyl-beta-cyclodextrin for 0.5 hrs followed by incubation with compound for 2 hrs by FACS analysis; type: ADME, cell-based; details: k562, 2 h, 5 µM, dose 5 µmol/L
K562 [11] = assay: Induction of apoptosis in human K562 cells assessed as late apoptotic cells at PROTAC to compound concentration ratio of 1:5 incubated for 48 hrs in presence of 3 umol/L IMA-PROTAC by AnnexinV-FITC/PI staining based flow cytometry (reference value: 0.01%); type: functional
[12] = Drug uptake in human K562 cells assessed as increase in fluorescence intensity at 5 umol/L pretreated with endocytosis inhibitor, nystatin for 0.5 hrs followed by incubation with compound for 2 hrs by FACS analysis; type: ADME, cell-based; details: k562, 2 h, 5 µM, dose 5 µmol/L
[13] = Drug uptake in human KU812 cells assessed as membrane permeability by measuring increase in fluorescence intensity at 5 umol/L incubated for 2 hrs by flow cytometry relative to THP-1 cells; type: ADME, cell-based; details: ku812, 2 h, 5 µM, dose 5 µmol/L
[14] = Stability of the compound in fetal bovine serum assessed as parent compound remaining measured after 12 hrs by HPLC-MS analysis; type: ADME, cell-free, Bos taurus; details: cattle, read-out: Stability
[15] = Drug uptake in human K562 cells assessed as membrane permeability by measuring increase in fluorescence intensity at 5 umol/L incubated for 2 hrs by flow cytometry relative to THP-1 cells; type: ADME, cell-based; details: k562, 2 h, 5 µM, dose 5 µmol/L
K562 [16] = assay: Induction of cell cycle arrest in human K562 cells assessed as accumulation of cells at G2/M phase at PROTAC to compound concentration ratio of 1:5 incubated for 48 hrs in presence of 3 umol/L IMA-PROTAC by propidium iodide staining based flow cytometry; type: functional
K562 [17] = assay: Increase in membrane permeability of IMA-PROTAC in human K562 cells assessed as potentiation of IMA-PROTAC-induced Bcr-Abl degradation at PROTAC to compound concentration ratio of 1:5 to 1:3 incubated for 48 hrs in presence of 3 umol/L IMA-PROTAC by western blot analysis; type: functional, cell-based
[18] = Stability of the compound in fetal bovine serum assessed as parent compound remaining measured after 8 hrs by HPLC-MS analysis; type: ADME, cell-free, Bos taurus; details: cattle, read-out: Stability
[19] = Drug uptake in human KU812 cells assessed as increase in fluorescence intensity at 1 to 10 uM incubated for 2 hrs by flow cytometry; type: ADME, cell-based; details: ku812, 2 h, dose 1-10 µM
K562 [20] = assay: Induction of apoptosis in human K562 cells assessed as early apoptotic cells at PROTAC to compound concentration ratio of 1:5 incubated for 48 hrs in presence of 3 umol/L IMA-PROTAC by AnnexinV-FITC/PI staining based flow cytometry (reference value: 0.03%); type: functional
[21] = Drug uptake in human KU812 cells assessed as increase in fluorescence intensity at 1 to 10 umol/L incubated for 2 hrs by cell imaging based fluorescence microscopic analysis; type: ADME; details: ku812, 2 h, dose 1-10 µmol/L
[22] = Cytotoxicity against human K562 cells assessed as cell viability at 0.01 to 100 uM incubated for 48 hrs by MTT assay; type: toxicity, cell-based; details: dose 0.01-100 µM, read-out: Activity
[23] = Cytotoxicity against human THP-1 cells assessed as cell viability at higher concentrations incubated for 48 hrs by MTT assay; type: toxicity, cell-based; details: read-out: Activity
[24] = Interaction with IMA-PROTAC assessed as induction of assembly formation by transmission electron microscopy; type: physicochemical
[25] = Drug uptake in human KU812 cells assessed as perinuclear distribution and colocalization with nucleus at 10 umol/L incubated for 2 hrs by confocal laser microscopy; type: ADME, cell-based; details: ku812, 2 h, 10 µM, dose 10 µmol/L
[26] = Stability of the compound in fetal bovine serum assessed as parent compound remaining measured after 36 hrs by HPLC-MS analysis; type: ADME, cell-free, Bos taurus; details: cattle, read-out: Stability
[27] = Drug uptake in human K562 cells assessed as increase in fluorescence intensity at 1 to 10 umol/L incubated for 2 hrs by cell imaging based fluorescence microscopic analysis; type: ADME; details: k562, 2 h, dose 1-10 µmol/L
[28] = Cytotoxicity against human CCRF-CEM cells assessed as cell viability at 0.01 to 100 uM incubated for 48 hrs by MTT assay; type: toxicity, cell-based; details: dose 0.01-100 µM, read-out: Activity
[29] = Drug uptake in human KU812 cells assessed as membrane penetration by measuring increase in fluorescence intensity at 5 umol/L incubated for 2 hrs by flow cytometry relative to C9C; type: ADME, cell-based; details: ku812, 2 h, 5 µM, dose 5 µmol/L
[30] = Drug uptake in human K562 cells assessed as increase in fluorescence intensity at 5 umol/L measured for 5 to 30 mins by flow cytometry; type: ADME, cell-based; details: k562, 5 µM, TDE = time-dependent effect, time 5-30 min, dose 5 µmol/L
K562 [31] = assay: Increase in membrane permeability of IMA-PROTAC in human K562 cells assessed as potentiation of IMA-PROTAC-induced inhibition of STAT5 phosphorylation at PROTAC to compound concentration ratio of 1:5 to 1:3 incubated for 48 hrs in presence of 3 umol/L IMA-PROTAC by western blot analysis; type: functional, cell-based
[32] = Drug uptake in human CCRF-CEM cells assessed as perinuclear distribution and colocalization with nucleus at 10 umol/L incubated for 2 hrs by confocal laser microscopy; type: ADME, cell-based; details: 10 µM, dose 10 µmol/L
K562 [33] = assay: Induction of apoptosis in human K562 cells assessed as viable cells at PROTAC to compound concentration ratio of 1:5 incubated for 48 hrs in presence of 3 umol/L IMA-PROTAC by AnnexinV-FITC/PI staining based flow cytometry (reference value: 99.85%); type: functional
[34] = Cytotoxicity against human KU812 cells assessed as cell viability at 0.01 to 100 uM incubated for 48 hrs by MTT assay; type: toxicity, cell-based; details: dose 0.01-100 µM, read-out: Activity
[35] = Drug uptake in human K562 cells assessed as membrane penetration by measuring increase in fluorescence intensity at 5 umol/L incubated for 2 hrs by flow cytometry relative to C9C; type: ADME, cell-based; details: k562, 2 h, 5 µM, dose 5 µmol/L
[36] = Drug uptake in human CCRF-CEM cells assessed as membrane penetration by measuring increase in fluorescence intensity at 5 umol/L incubated for 2 hrs by flow cytometry relative to C9C; type: ADME, cell-based; details: 5 µM, dose 5 µmol/L
K562 [37] = assay: Increase in membrane permeability of IMA-PROTAC in human K562 cells assessed as potentiation of IMA-PROTAC-induced inhibition of STAT5 phosphorylation at PROTAC to compound concentration ratio of 1:5 incubated for 48 hrs in presence of 3 umol/L IMA-PROTAC by western blot analysis; type: functional, cell-based
[38] = Increase in membrane permeability of IMA-PROTAC in human K562 cells assessed as potentiation of IMA-PROTAC-induced Bcr-Abl degradation at PROTAC to compound concentration ratio of 1:5 incubated for 48 hrs in presence of 3 umol/L IMA-PROTAC by western blot analysis (reference value: 40%); type: functional
[39] = Cytotoxicity against human THP-1 cells assessed as reduction in cell viability at higher concentrations incubated for 48 hrs by MTT assay; type: toxicity, cell-based; details: read-out: INH
K562 [40] = assay: Increase in membrane permeability of IMA-PROTAC in human K562 cells assessed as potentiation of IMA-PROTAC-induced Bcr-Abl degradation at PROTAC to compound concentration ratio of 1:3 incubated for 48 hrs in presence of 3 umol/L IMA-PROTAC by western blot analysis; type: functional, cell-based
[41] = Drug uptake in human THP-1 cells assessed as increase in fluorescence intensity at 10 umol/L incubated for 2 hrs by cell imaging based fluorescence microscopic analysis; type: ADME; details: thp-1, 2 h, 10 µM, dose 10 µmol/L

Compound: CC(C)C[C@@H]1NC(=O)[C@H](Cc2c[nH]c3ccccc23)NC(=O)[C@H](Cc2ccc(O)cc2)NC(=O)[C@H](Cc2ccccc2)NC(=O)[C@H](CCCNC(=N)N)NC(=O)[C@H](CCCCN)NC(=O)[C@H](CCC(=O)O)NC(=O)[C@H](CO)NC(=O)[C@H](CCCNC(=N)N)NC1=O (cyclo(EKRFYWLRS))
- Drug uptake [1]: Not Active
- Activity [2]: Not Active
- Drug uptake [3]: Active
- Activity (K562 [4]): 0.06%
- Drug uptake [5]: Tde
- fold change (FC) [6]: 2.05
- Activity (K562 [7]): inactive
- Drug uptake [8]: Not Active
- Drug uptake [9]: Dose-Dependent Effect
- Drug uptake [10]: Not Active
- Activity (K562 [11]): 1.58%
- Drug uptake [12]: Active
- fold change (FC) [13]: 11.7
- remaining at 12 h [14]: 80%
- fold change (FC) [15]: 33.3
- Activity (K562 [16]): Active
- Activity (K562 [17]): Active
- remaining at 8 h [18]: 100%
- Drug uptake [19]: Dose-Dependent Effect
- Activity (K562 [20]): 10.71%
- Drug uptake [21]: Active
- viability at 48 h, up to 100 µM [22]: > 75%
- viability at 48 h [23]: > 75%
- Activity [24]: Not Active
- Drug uptake [25]: Active
- remaining at 36 h [26]: 75%
- Drug uptake [27]: Active
- viability at 48 h, up to 100 µM [28]: > 75%
- fold change (FC) [29]: 7.99
- Drug uptake [30]: Tde
- Activity (K562 [31]): Active
- Drug uptake [32]: Active
- Activity (K562 [33]): 87.64%
- viability at 48 h, up to 100 µM [34]: > 75%
- fold change (FC) [35]: 9.24

Compound: CC(C)C[C@H](NC(=O)[C@H](Cc1csc2ccccc12)NC(=O)[C@H](Cc1ccc(O)cc1)NC(=O)[C@H](Cc1ccccc1)NC(=O)CNC(=O)[C@@H](N)CS)C(=O)N[C@@H](CCCNC(=N)N)C(=O)N[C@@H](CO)C(=O)N[C@@H](CS)C(=O)O (H-CGFY[Bta]LRSC-OH)
- fold change (FC) [36]: 4.78

Compound: CC(C)C[C@H](NC(=O)[C@H](Cc1c[nH]c2ccccc12)NC(=O)[C@H](Cc1ccc(O)cc1)NC(=O)[C@H](Cc1ccccc1)NC(=O)CNC(=O)[C@@H](N)CS)C(=O)N[C@@H](CCCNC(=N)N)C(=O)N[C@@H](CO)C(=O)N[C@@H](CS)C(=O)O (H-CGFYWLRSC-OH)
- Activity [2]: Not Active
- Activity (K562 [37]): Active
- Activity (K562 [4]): 0.09%
- Activity [38]: 60%
- Activity (K562 [11]): 7.46%
- remaining at 12 h [14]: 80%
- remaining at 8 h [18]: 100%
- Activity (K562 [20]): 6.26%
- cytotoxicity at 48 h [39]: ~50%
- viability at 48 h, up to 100 µM [22]: > 75%
- Activity (K562 [40]): Active
- Activity [24]: Not Active
- remaining at 36 h [26]: 35%
- viability at 48 h, up to 100 µM [28]: > 75%
- Drug uptake [41]: Active
- Activity (K562 [33]): 86.18%
- viability at 48 h, up to 100 µM [34]: > 75%

Compound: CC(C)C[C@@H]1NC(=O)[C@H](Cc2c[nH]c3ccccc23)NC(=O)[C@H](Cc2ccccc2)NC(=O)[C@H](Cc2ccccc2)NC(=O)[C@H](CCCNC(=N)N)NC(=O)[C@H](CCCCN)NC(=O)[C@H](CCC(=O)O)NC(=O)[C@H](CO)NC(=O)[C@H](CCCNC(=N)N)NC1=O (cyclo(EKRFFWLRS))
- fold change (FC) [29]: 5.65
- fold change (FC) [35]: 5.28
